In this experiment the target is Replicase polyprotein 1ab (Severe acute respiratory syndrome coronavirus 2) (UniProt P0DTD1).

Description: Functional biochemical assay to identify treatments for viral infectious disease that targets SARS-COV-2 nsp3 macrodomain, whereby the mechanism of action displaces an ADP-Ribose modified peptide from the binding site. Utilizing a time-resolved fluorescence method to measure binding by reading the emitted fluorescence intensity in two wavelengths.

Take `c1nc(N2CCC[C@@H](c3nc4c(s3)CCC4)C2)c2c[nH]nc2n1`: the inhibition (Concentration 50.0 uM, Number of replicates 2.0, Standard deviation 1.131 %) is 3.83%. Regarding `CC1OCCC1(O)CNC(=O)c1ncnc2[nH]ccc12` (centres undefined), the inhibition (Concentration 50.0 uM, Number of replicates 2.0, Standard deviation 4.016 %) worked out at 1.86%.

On to `CN1CCO[C@H](CNC(=O)c2ccc(NC(=O)Nc3ccccc3)cc2)C1`, for which the inhibition is, setting by setting: (Concentration 49.75 uM, Number of replicates 2.0, Standard deviation 5.309 %) -0.616%; (Concentration 99.5 uM, Number of replicates 2.0, Standard deviation 6.496 %) 3.27%. For the compound `O=C(NC[C@@H]1CCCCN1)c1cnn2ccc(C3CCN(C(=O)c4ccccc4)CC3)cc12`, the inhibition is, setting by setting: (Concentration 49.75 uM, Number of replicates 2.0, Standard deviation 3.98 %) -5.92%; (Concentration 99.5 uM, Number of replicates 2.0, Standard deviation 0.917 %) -2.57%.

In the case of `c1coc(CNc2ncnc3[nH]cnc23)c1`, where the note is “Concentration 50.0 uM, Number of replicates 2.0, Standard deviation 0.16 %”, the inhibition stood at 2.63%.

On to `CC(C)n1cc(S(=O)(=O)Nc2cnc3[nH]ncc3c2)cn1`, for which, under “Concentration 50.0 uM, Number of replicates 4.0, Standard deviation 3.956 %”, the inhibition was 1.55%. With `O=C(Cc1ccc(F)cc1)Nc1ccc2[nH]ncc2c1`, for the setting “Concentration 50.0 uM, Number of replicates 2.0, Standard deviation 1.625 %”, the inhibition was 1.14%.

For the origin of these results see ChEMBL document CHEMBL5442379, “ASAP - SARS-CoV-2 nsp3 macrodomain single point” (2024).
